Test results as given in ChEMBL document CHEMBL1201862, “PubChem BioAssay data set” (2004).
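These data come from cells grown in 96-well plates and exposed to compound for 48 hours at five concentrations. Here, GI50 denotes the concentration required for 50% inhibition of growth.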 The source made the active and inactive calls. No stated cut-off is given here; in the data, active = GI50 up to about 1.1 µM and inactive = higher.

Columns and labels:
Assay in all cases: NCI tumour cell line growth inhibition, 48 h
[1] = test system: COLO 205
[2] = test system: HL-60
[3] = test system: HOP-62
[4] = test system: K562
[5] = test system: KM12
[6] = test system: LOX IMVI
[7] = test system: MDA-MB-231
[8] = test system: MDA-N
[9] = test system: MOLT-4
[10] = test system: NCI-H226
[11] = test system: NCI-H460
[12] = test system: RPMI-8226
[13] = test system: SF-268
[14] = test system: SK-MEL-5
[15] = test system: SNB-75
[16] = test system: UACC-257
[17] = test system: UACC-62
[18] = test system: HOP-92
[19] = test system: M14
[20] = test system: SK-OV-3

Measured: GI50

O=c1[nH]nc(Cc2ccccc2)n1Nc1ccccc1
inactive: [1] > 100 µM | [2] > 100 µM | [3] > 100 µM | [4] > 100 µM | [5] > 100 µM | [6] > 100 µM | [7] > 100 µM | [8] > 100 µM | [9] > 100 µM | [10] > 100 µM | [11] > 100 µM | [12] > 100 µM | [13] 52 µM | [14] > 100 µM | [15] 17.2 µM | [16] > 100 µM | [17] > 100 µM

O=C(N/N=C/C=C/c1ccccc1)c1ccccc1Nc1ccccc1C(=O)N/N=C/C=C/c1ccccc1
inactive: [1] > 100 µM | [2] > 100 µM | [3] 3.58 µM | [18] 67 µM | [4] > 100 µM | [5] > 100 µM | [19] 48 µM | [7] 49.5 µM | [8] > 100 µM | [9] 1.92 µM | [10] > 100 µM | [11] 26.5 µM | [12] > 100 µM | [13] 34.4 µM | [14] > 100 µM | [20] > 100 µM | [15] 21.4 µM | [16] > 100 µM | [17] 93.5 µM

O=C1CC(=O)NC(NN2C(=O)/C(=C/c3ccccc3)N=C2c2ccccc2)=N1
inactive: [1] > 100 µM | [3] > 100 µM | [18] > 100 µM | [4] > 100 µM | [5] > 100 µM | [19] > 100 µM | [7] > 100 µM | [8] > 100 µM | [9] > 100 µM | [10] > 100 µM | [11] > 100 µM | [12] > 100 µM | [13] > 100 µM | [14] > 100 µM | [20] > 100 µM | [15] > 100 µM | [16] > 100 µM | [17] 26.7 µM

O=C(C(=O)n1ccc2ccccc21)n1ccc2ccccc21
inactive: [1] > 100 µM | [3] 99.3 µM | [18] 34 µM | [4] 71.4 µM | [6] > 100 µM | [7] > 100 µM | [8] > 100 µM | [9] > 100 µM | [10] > 100 µM | [11] 36.6 µM | [12] > 100 µM | [13] 84.7 µM | [14] > 100 µM | [20] 48.3 µM | [15] 10.7 µM | [16] > 100 µM | [17] 57.9 µM

Cc1ccc(-n2cnc(C(=N)C#N)c2N)cc1
inactive: [1] > 100 µM | [2] > 100 µM | [3] > 100 µM | [4] > 100 µM | [5] > 100 µM | [6] > 100 µM | [19] > 100 µM | [7] > 100 µM | [8] > 100 µM | [9] > 100 µM | [10] > 100 µM | [11] > 100 µM | [12] > 100 µM | [13] > 100 µM | [14] > 100 µM | [20] > 100 µM | [15] > 100 µM | [16] > 100 µM | [17] > 100 µM

CCCCOP(=O)(OCCCC)/C(C#N)=C/c1ccc(C)o1
inactive: [1] 31.9 µM | [3] > 100 µM | [18] 29.6 µM | [4] 31.2 µM | [5] 42.4 µM | [6] 59 µM | [19] 28.2 µM | [7] > 100 µM | [8] 36.9 µM | [9] 63.4 µM | [10] 28 µM | [11] 61.5 µM | [12] 54.8 µM | [13] 63.4 µM | [14] 33.7 µM | [20] 81.5 µM | [15] 35.3 µM | [16] 27.4 µM | [17] 53.7 µM

COc1cc(S(=O)(=O)Nc2nc(-c3ccc(N4C(=O)/C(=C/c5ccccc5)N=C4c4ccccc4)cc3)cs2)ccc1Cl
inactive: [1] 40 µM | [3] 29 µM | [18] 34.4 µM | [4] 41.6 µM | [5] 50.6 µM | [6] 34.5 µM | [19] 56.4 µM | [7] 21.3 µM | [8] 37.3 µM | [9] 28.2 µM | [10] 62.5 µM | [11] > 100 µM | [13] 25 µM | [14] 26.9 µM | [20] > 100 µM | [15] 39.6 µM | [16] 55.2 µM | [17] 21.2 µM
